# Literature values in patent US8796326B1, “Fire ant killer (F.A.K.)/ insecticide” (priority 2008, dated 2014).
# Test system: bacterial contamination on the hands and on treated products
compound,measurement,value
"Oc1cc(Cl)ccc1Oc1ccc(Cl)cc1Cl [Triclosan, 5-chloro-2-(2,4-dichlorophenoxy)phenol]",reducing and controlling bacterial contamination,effective
